This note sets out measurements from US20030092126A1, “Fragments of leptin (ob protein)” (SmithKline Beecham p.l.c., priority 1996, published 2003).

The experiment deals with SD rats. In words: Effect of leptin fragments given intracerebroventricularly on food intake and body weight in SD rats. It is filed as in vivo. The conditions noted are these: single icv injection, measured 24 h later, n = 8, * P < 0.05. The protocol:
Effect of Leptin Fragments on Food Intake in SD Rats
Rats are pre-treated with Synulox (0.1 ml/100 g) approx 1 hour before anaesthesia, and then anaesthetised with Domitor (0.04 ml/100 g i.m.) and sublimase (0.9 ml/100 g i.p.) Each rat has a cannula implanted stereotaxically into the lateral brain ventricle under sterile conditions. Anaesthesia is then reversed using Antisedan and Nubain (50% v/v :50% v/v 0.02 m1/100 g) I.P. After surgery each rat receives 0.05 ml Zenecarp.
Experiment 1: Following surgery the body weight of each animal was monitored daily throughout the procedure.
In order to verify that the cannula was in the lateral ventricle, Angiotensin II (100 ng/5 μl ) was injected icv and water intake was monitored for 5 min after injection.
24 hour food intake was measured on day 5 and 6 after surgery. On day 6 the animals were divided according to their body weight into 3 groups (a,b and c, 8 rats per group) and then fasted overnight. On the day of experiment (day 7) rats were injected icv as follows::
group a-vehicle (PBS, phosphate buffer solution, 5 μl/rat);
group b-human leptin (11.5 μg/5 μl); and
group c-leptin tryptic digest (30 μg/5 μl).
A known quantity of food in excess of the daily requirement was supplied to the rats immediately after the icv injection procedure was completed. Food intake and body weight were then measured 24h later.
Experiment 2: A separate group of animals was prepared exactly as described above but on the day of experiment after overnight fast, groups of rats were injected as follows:
group a-vehicle (PBS 5 μl /rat);
group b-human leptin ([…]);
group c-murine leptin (10 μg/5 μl);
group d-ob 57-74, sequence VTGLDFIPGLHPILTLSK (3.33 μg/5 μl);
Again a pre-weight quantity of food, in excess of the daily requirement, was re-given following the injection; change in body weight and the quantity of food consumed were recorded 24h later.

The mark [1] stands for this setting: Experiment 1, Table 1, overnight fast, h-leptin 11.5 μg/rat, tryptic digest 30 μg/rat.
Where [2] appears, read: Experiment 2, Table 2, overnight fast, h-leptin 8.75 μg/rat, m-leptin 10 μg/rat, fragment 57-74 3.33 μg/rat.

As for “h-Leptin: human leptin (human ob protein)”, under setting [1], the “24 h food intake” value was 30.62 ± 1.5* g and the “Bwt Change” value is on record as 22.88 ± 2.05* g/24 h. Moreover, under setting [2], the “24 h food intake” value is on record as 33.7 ± 1.6 g and the “Bwt Change” value came to 24.5 ± 3.7 g/24 h.

With “VTGLDFIPGLHPILTLSK [Leptin fragment 57-74, fragment of human ob protein, amino acid residues 57 to 74]”, under setting [2], the “24 h food intake” value is reported as 33.6 ± 0.9 g and the “Bwt Change” value is on record as 26.8 ± 1.2* g/24 h.

B1: m-Leptin: murine leptin (protein, UniProt P41160 22-167, looked up)
Leptin: VPIQKVQDDTKTLIKTIVTRINDISHTQSVSAKQRVTGLDFIPGLHPILSLSKMDQTLAVYQQVLTSLPSQNVLQIANDLENLRDLLHLLAFSKSCSLPQTSGLQKPESLDGVLEASLYSTEVVALSRLQGSLQDILQQLDVSPEC
Turning to B1, under setting [2], the “24 h food intake” value is 31.3 ± 1.7 g and the “Bwt Change” value was 23.7 ± 2.18* g/24 h.
